# The source made the active and inactive calls. No rule for the calls is given here.
# Tested on: CCRIS mutagenicity, Ames/micronucleus/aberration tests
# Experiment: CCRIS mutagenicity studies
# [1] = Test System: AMES SALMONELLA TYPHIMURIUM, Strain/Indicator: TA98, Metabolic Activation: NONE, Method: STANDARD PLATE
# [2] = Test System: AMES SALMONELLA TYPHIMURIUM, Strain/Indicator: TA98, Metabolic Activation: RAT, LIVER, S-9, AROCLOR 1254, Method: STANDARD PLATE
# [3] = Test System: AMES SALMONELLA TYPHIMURIUM, Strain/Indicator: TA100, Metabolic Activation: NONE, Method: STANDARD PLATE
# [4] = Test System: AMES SALMONELLA TYPHIMURIUM, Strain/Indicator: TA100, Metabolic Activation: RAT, LIVER, S-9, AROCLOR 1254, Method: STANDARD PLATE
# [5] = Test System: MOUSE LYMPHOMA, Strain/Indicator: L5178Y (TK+/TK-), Metabolic Activation: NONE, Method: SUSPENSION/PLATE
# [6] = Test System: AMES SALMONELLA TYPHIMURIUM, Strain/Indicator: TA97, Metabolic Activation: NONE, Method: STANDARD PLATE
# [7] = Test System: AMES SALMONELLA TYPHIMURIUM, Strain/Indicator: TA102, Metabolic Activation: NONE, Method: PREINCUBATION
# [8] = Test System: AMES SALMONELLA TYPHIMURIUM, Strain/Indicator: TA102, Metabolic Activation: RAT, LIVER, S-9, AROCLOR 1254, Method: PREINCUBATION
# [9] = Test System: AMES SALMONELLA TYPHIMURIUM, Strain/Indicator: TA98, Metabolic Activation: NONE, Method: PREINCUBATION
# [10] = Test System: AMES SALMONELLA TYPHIMURIUM, Strain/Indicator: TA98, Metabolic Activation: RAT, LIVER, S-9, AROCLOR 1254, Method: PREINCUBATION
# [11] = Test System: AMES SALMONELLA TYPHIMURIUM, Strain/Indicator: TA100, Metabolic Activation: NONE, Method: PREINCUBATION
smiles,measurement,setting,value
O=C(O)CCc1ccccc1,mutagenic call,"Test System: AMES SALMONELLA TYPHIMURIUM, Strain/Indicator: TA98, Metabolic Activation: HAMSTER, LIVER, S-9, AROCLOR 1254, Method: STANDARD PLATE",inactive; negative
same,mutagenic call,[1],inactive; negative
same,mutagenic call,[2],inactive; negative
same,mutagenic call,"Test System: AMES SALMONELLA TYPHIMURIUM, Strain/Indicator: TA100, Metabolic Activation: HAMSTER, LIVER, S-9, AROCLOR 1254, Method: STANDARD PLATE",inactive; negative
same,mutagenic call,[3],inactive; negative
same,mutagenic call,[4],inactive; negative
same,mutagenic call,"Test System: AMES SALMONELLA TYPHIMURIUM, Strain/Indicator: TA1535, Metabolic Activation: HAMSTER, LIVER, S-9, AROCLOR 1254, Method: STANDARD PLATE",inactive; negative
same,mutagenic call,"Test System: AMES SALMONELLA TYPHIMURIUM, Strain/Indicator: TA1535, Metabolic Activation: NONE, Method: STANDARD PLATE",inactive; negative
same,mutagenic call,"Test System: AMES SALMONELLA TYPHIMURIUM, Strain/Indicator: TA1535, Metabolic Activation: RAT, LIVER, S-9, AROCLOR 1254, Method: STANDARD PLATE",inactive; negative
same,mutagenic call,"Test System: AMES SALMONELLA TYPHIMURIUM, Strain/Indicator: TA1537, Metabolic Activation: HAMSTER, LIVER, S-9, AROCLOR 1254, Method: STANDARD PLATE",inactive; negative
same,mutagenic call,"Test System: AMES SALMONELLA TYPHIMURIUM, Strain/Indicator: TA1537, Metabolic Activation: NONE, Method: STANDARD PLATE",inactive; negative
same,mutagenic call,"Test System: AMES SALMONELLA TYPHIMURIUM, Strain/Indicator: TA1537, Metabolic Activation: RAT, LIVER, S-9, AROCLOR 1254, Method: STANDARD PLATE",inactive; negative
same,mutagenic call,"Test System: AMES SALMONELLA TYPHIMURIUM, Strain/Indicator: TA1538, Metabolic Activation: HAMSTER, LIVER, S-9, AROCLOR 1254, Method: STANDARD PLATE",inactive; negative
same,mutagenic call,"Test System: AMES SALMONELLA TYPHIMURIUM, Strain/Indicator: TA1538, Metabolic Activation: NONE, Method: STANDARD PLATE",inactive; negative
same,mutagenic call,"Test System: AMES SALMONELLA TYPHIMURIUM, Strain/Indicator: TA1538, Metabolic Activation: RAT, LIVER, S-9, AROCLOR 1254, Method: STANDARD PLATE",inactive; negative
same,mutagenic call,[5],inactive; negative. reevaluation of results: negative
same,mutagenic call,"Test System: MOUSE LYMPHOMA, Strain/Indicator: L5178Y (TK+/TK-), Metabolic Activation: RAT, LIVER, S-9, AROCLOR 1254, Method: SUSPENSION/PLATE",inactive; negative. reevaluation of results: negative
ClC(Cl)=C(c1ccc(Cl)cc1)c1ccc(Cl)cc1,mutagenic call,"End Point: IN VITRO CHROMOSOMAL ABERRATIONS, Test System: CHINESE HAMSTER OVARY CELLS, Metabolic Activation: NONE",inactive; negative
same,mutagenic call,"End Point: IN VITRO CHROMOSOMAL ABERRATIONS, Test System: CHINESE HAMSTER OVARY CELLS, Metabolic Activation: RAT, LIVER, S-9, AROCLOR 1254",inactive; negative
same,mutagenic call,[6],inactive; negative
same,mutagenic call,"Test System: AMES SALMONELLA TYPHIMURIUM, Strain/Indicator: TA97, Metabolic Activation: RAT, LIVER, S-9, AROCLOR 1254, Method: STANDARD PLATE",inactive; negative
same,mutagenic call,[1],inactive; negative
same,mutagenic call,[2],inactive; negative
same,mutagenic call,[3],inactive; negative
same,mutagenic call,[4],inactive; negative
same,mutagenic call,"Test System: CHINESE HAMSTER V-79, Strain/Indicator: V-79/8-AZAGUANINE, Metabolic Activation: NONE, Method: STANDARD PLATE",active; positive
same,mutagenic call,[5],active; positive
CC(O)/C=C/C=O (stereo not given),mutagenic call,"Test System: AMES SALMONELLA TYPHIMURIUM, Strain/Indicator: TA104, Metabolic Activation: NONE, Method: PREINCUBATION",active; positive
C=COC(N)=O,mutagenic call,"End Point: In vivo micronucleus, Test System: Peripheral blood reticulocytes, Species: Mouse, Strain/Sex: F1 (Big Blue x A/J) transgenic/Male and female, Route: Intraperitoneal",active; positive
same,mutagenic call,"Test System: UDS MOUSE SPERMATIDS, Strain/Indicator: THY INCORP, Metabolic Activation: NONE",active; positive
O=C1CCCc2c1ccc1c([N+](=O)[O-])c3ccccc3cc21,mutagenic call,"Test System: AMES SALMONELLA TYPHIMURIUM, Strain/Indicator: TA98, Metabolic Activation: NONE",inactive; negative
same,mutagenic call,"Test System: AMES SALMONELLA TYPHIMURIUM, Strain/Indicator: TA98, Metabolic Activation: S-9",inactive; negative
same,mutagenic call,"Test System: AMES SALMONELLA TYPHIMURIUM, Strain/Indicator: TA100, Metabolic Activation: NONE",inactive; negative
same,mutagenic call,"Test System: AMES SALMONELLA TYPHIMURIUM, Strain/Indicator: TA100, Metabolic Activation: S-9",inactive; negative
O=C(O)CC(O)(CC(=O)O)C(=O)O,mutagenic call,"Test System: AMES SALMONELLA TYPHIMURIUM, Strain/Indicator: TA97, Metabolic Activation: NONE, Method: PREINCUBATION",inactive; negative
same,mutagenic call,[6],inactive; negative
same,mutagenic call,"Test System: AMES SALMONELLA TYPHIMURIUM, Strain/Indicator: TA97, Metabolic Activation: RAT, LIVER, S-9, AROCLOR 1254, Method: PREINCUBATION",inactive; negative
same,mutagenic call,"Test System: AMES SALMONELLA TYPHIMURIUM, Strain/Indicator: TA97, Metabolic Activation: RAT, LIVER, S-9, PHENOBARBITAL, Method: STANDARD PLATE",inactive; negative
same,mutagenic call,"Test System: AMES SALMONELLA TYPHIMURIUM, Strain/Indicator: TA97, Metabolic Activation: S-9, Method: PREINCUBATION",inactive; negative
same,mutagenic call,[1],inactive; negative
same,mutagenic call,"Test System: AMES SALMONELLA TYPHIMURIUM, Strain/Indicator: TA98, Metabolic Activation: RAT, LIVER, S-9, PHENOBARBITAL, Method: STANDARD PLATE",inactive; negative
same,mutagenic call,[3],inactive; negative
same,mutagenic call,"Test System: AMES SALMONELLA TYPHIMURIUM, Strain/Indicator: TA100, Metabolic Activation: RAT, LIVER, S-9, PHENOBARBITAL, Method: STANDARD PLATE",inactive; negative
same,mutagenic call,[7],inactive; negative
same,mutagenic call,[8],inactive; negative
same,mutagenic call,"Test System: AMES SALMONELLA TYPHIMURIUM, Strain/Indicator: TA102, Metabolic Activation: S-9, Method: PREINCUBATION",inactive; negative
same,mutagenic call,"Test System: AMES SALMONELLA TYPHIMURIUM, Strain/Indicator: TA104, Metabolic Activation: NONE, Method: STANDARD PLATE",inactive; negative
same,mutagenic call,"Test System: AMES SALMONELLA TYPHIMURIUM, Strain/Indicator: TA104, Metabolic Activation: RAT, LIVER, S-9, PHENOBARBITAL, Method: STANDARD PLATE",inactive; negative
Cc1ccc(C2CO2)cc1 (stereo not given),mutagenic call,"Test System: E. COLI, Strain/Indicator: WP2 UVRA, Metabolic Activation: NONE, Method: STANDARD PLATE",active; positive
CC(=O)Nc1ccc(Oc2ccc(N=O)cc2)cc1,mutagenic call,"Test System: AMES SALMONELLA TYPHIMURIUM, Strain/Indicator: TA98(1,8-DNP6), Metabolic Activation: NONE, Method: PREINCUBATION",active; positive
same,mutagenic call,"Test System: AMES SALMONELLA TYPHIMURIUM, Strain/Indicator: TA98(1,8-DNP6), Metabolic Activation: RAT, LIVER, S-9, AROCLOR 1254, Method: PREINCUBATION",active; positive
same,mutagenic call,"Test System: AMES SALMONELLA TYPHIMURIUM, Strain/Indicator: TA98(NR), Metabolic Activation: NONE, Method: PREINCUBATION",active; positive
same,mutagenic call,"Test System: AMES SALMONELLA TYPHIMURIUM, Strain/Indicator: TA98(NR), Metabolic Activation: RAT, LIVER, S-9, AROCLOR 1254, Method: PREINCUBATION",active; positive
same,mutagenic call,[9],active; positive
same,mutagenic call,[10],active; positive
same,mutagenic call,"Test System: AMES SALMONELLA TYPHIMURIUM, Strain/Indicator: TA100(NR), Metabolic Activation: NONE, Method: PREINCUBATION",active; positive
same,mutagenic call,[11],active; positive
CSSC,mutagenic call,[9],inactive; negative
same,mutagenic call,[10],inactive; negative
same,mutagenic call,[11],inactive; negative
same,mutagenic call,"Test System: AMES SALMONELLA TYPHIMURIUM, Strain/Indicator: TA100, Metabolic Activation: RAT, LIVER, S-9, AROCLOR 1254, Method: PREINCUBATION",inactive; negative
same,mutagenic call,[7],inactive; negative
same,mutagenic call,[8],inactive; negative
O=[N+]([O-])c1ccc2ccc3cc4c(c5ccc1c2c35)CCCC4,mutagenic call,[1],active; positive
same,mutagenic call,[3],inactive; negative
